In ChEMBL document CHEMBL2375236, “Strategic use of conformational bias and structure based design to identify potent JAK3 inhibitors with improved selectivity against the JAK family and the kinome” (Bioorg Med Chem Lett, 2013):
In brackets after ≈: the same amount, converted by molar mass.

Tests used:
[1] = biological target: T1, Tyrosine-protein kinase JAK1 (Homo sapiens, UniProt P23458)
[2] = biological target: T1, Tyrosine-protein kinase JAK1; remark: listed apart in the source
Description: Binding affinity to JAK1 (unknown origin) by ligand displacement assay

[3] = biological target: Non-receptor tyrosine-protein kinase TYK2 (Homo sapiens, UniProt P29597)
Description: Binding affinity to TYK2 (unknown origin) by ligand displacement assay

[4] = biological target: T2, Tyrosine-protein kinase JAK3 (Homo sapiens, UniProt P52333)
T2 sequence (P52333 whole entry): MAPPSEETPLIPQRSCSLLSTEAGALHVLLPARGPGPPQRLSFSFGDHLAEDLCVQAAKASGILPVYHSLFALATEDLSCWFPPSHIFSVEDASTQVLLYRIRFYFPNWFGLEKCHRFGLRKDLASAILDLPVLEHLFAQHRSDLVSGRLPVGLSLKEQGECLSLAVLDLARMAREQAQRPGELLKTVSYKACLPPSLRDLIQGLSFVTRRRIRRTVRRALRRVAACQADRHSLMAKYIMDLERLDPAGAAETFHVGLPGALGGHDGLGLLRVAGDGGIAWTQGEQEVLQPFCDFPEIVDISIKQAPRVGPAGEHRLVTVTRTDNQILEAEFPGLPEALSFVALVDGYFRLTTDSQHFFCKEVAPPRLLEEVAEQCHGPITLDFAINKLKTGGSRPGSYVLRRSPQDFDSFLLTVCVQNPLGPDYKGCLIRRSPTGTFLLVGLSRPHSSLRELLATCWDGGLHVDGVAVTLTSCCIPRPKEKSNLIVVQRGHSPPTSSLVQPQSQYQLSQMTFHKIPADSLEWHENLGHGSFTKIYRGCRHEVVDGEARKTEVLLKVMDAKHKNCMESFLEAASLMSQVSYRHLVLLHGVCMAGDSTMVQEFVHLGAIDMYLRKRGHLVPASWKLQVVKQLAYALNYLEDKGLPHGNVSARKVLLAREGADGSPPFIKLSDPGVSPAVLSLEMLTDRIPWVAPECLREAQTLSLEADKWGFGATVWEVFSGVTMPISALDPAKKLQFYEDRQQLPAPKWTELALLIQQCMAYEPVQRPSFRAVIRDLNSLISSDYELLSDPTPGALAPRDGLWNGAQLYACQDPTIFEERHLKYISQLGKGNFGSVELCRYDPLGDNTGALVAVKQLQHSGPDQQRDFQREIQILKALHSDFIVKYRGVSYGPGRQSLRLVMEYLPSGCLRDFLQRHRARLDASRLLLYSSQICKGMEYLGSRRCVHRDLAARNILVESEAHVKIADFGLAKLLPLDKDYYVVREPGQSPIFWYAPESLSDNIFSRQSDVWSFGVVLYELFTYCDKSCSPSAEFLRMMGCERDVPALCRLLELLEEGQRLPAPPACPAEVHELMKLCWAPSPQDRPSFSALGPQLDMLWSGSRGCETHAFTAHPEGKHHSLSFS

| IC50 [1] [nM] | solubility (physchem) [µg/mL] | Compound | further results |
| --- | --- | --- | --- |
| 12 | – | C[C@@H](NC(=O)c1c[nH]c2ncc(-c3nn(C)c4cc(C(C)(C)C)ccc34)nc12)C(=O)N1CC(C#N)C1 | – |
| 31 | < 1 | C[C@@H](NC(=O)c1c[nH]c2ncc(-c3nn(C)c4cc(Cl)ccc34)nc12)C(=O)N1CC(C#N)C1 | Kd [2]: 73 nM; Kd [3]: 350 nM |
| 22 | – | C[C@@H](NC(=O)c1c[nH]c2ncc(-c3nn(C)c4ccccc34)nc12)C(=O)N1CC(C#N)C1 | – |
| 38 | < 1 | COc1ccc2c(-c3cnc4[nH]cc(C(=O)N[C@H](C)C(=O)N5CC(C#N)C5)c4n3)nn(C)c2c1 | – |
| 4.6 | < 1 | CC[C@@H](NC(=O)c1c[nH]c2ncc(-c3nn(C)c4cc(Cl)ccc34)nc12)C(=O)N1CC(C#N)C1 | – |
| 0.8 | – | Cn1nc(-c2cnc3[nH]cc(C(=O)N[C@@H](C(=O)N4CC(C#N)C4)C4CC4)c3n2)c2ccc(Cl)cc21 | – |
| 10 | – | C[C@@H](NC(=O)c1c[nH]c2ncc(-c3nn(C)c4cc(C5CC5)ccc34)nc12)C(=O)N1CC(C#N)C1 | – |
| 17 | < 1 | C[C@@H](NC(=O)c1c[nH]c2ncc(-c3nn(C)c4cc(F)ccc34)nc12)C(=O)N1CC(C#N)C1 | – |
| 51 | < 1 | C[C@@H](NC(=O)c1c[nH]c2ncc(-c3nn(C)c4cc(C#N)ccc34)nc12)C(=O)N1CC(C#N)C1 | – |
| 61 | – | C[C@@H](NC(=O)c1c[nH]c2ncc(-c3nn(C)c4ccc(Cl)cc34)nc12)C(=O)N1CC(C#N)C1 | – |
| 5.5 | – | Cn1nc(-c2cnc3[nH]cc(C(=O)N[C@@H](C(=O)N4CC(C#N)C4)C(C)(C)C)c3n2)c2ccc(Cl)cc21 | – |

The next lines start with the molecule.

| Compound | IC50 [1] [nM] | solubility (physchem) [µg/mL] | further results |
| --- | --- | --- | --- |
| C[C@@H](NC(=O)c1c[nH]c2ncc(-n3ncc4cc(Cl)ccc43)nc12)C(=O)N1CC(C#N)C1 | 370 | < 1 | – |
| C[C@@H](NC(=O)c1c[nH]c2ncc(-c3nn(C)c4cc(Cl)cc(F)c34)nc12)C(=O)N1CC(C#N)C1 | – | < 1 | – |
| CCn1cc(-c2cnc3[nH]cc(C(=O)N[C@H](C)C(=O)N4CC(C#N)C4)c3n2)cn1 | 23 | 366 (≈ 933 µM) | IC50 [4]: 5.2 nM |
| COc1cc(-c2cnc3[nH]cc(C(=O)N[C@H](C)C(=O)N4CC(C#N)C4)c3n2)cc(OC)c1OC | 7.4 | – | – |
| C[C@@H](NC(=O)c1c[nH]c2ncc(-c3ncn4cc(F)ccc34)nc12)C(=O)N1CC(C#N)C1 | 16 | 39 (≈ 90.2 µM) | – |
| C[C@@H](NC(=O)c1c[nH]c2ncc(C3CC3)nc12)C(=O)N1CC(C#N)C1 | – | 277 (≈ 819 µM) | – |
| C[C@@H](NC(=O)c1c[nH]c2ncc(-c3ncn4cc(F)cc(F)c34)nc12)C(=O)N1CC(C#N)C1 | 73 | 31 (≈ 68.8 µM) | – |
| C[C@@H](NC(=O)c1c[nH]c2ncc(-c3cnc4cc(Cl)ccn34)nc12)C(=O)N1CC(C#N)C1 | 61 | – | – |
| C[C@@H](NC(=O)c1c[nH]c2ncc(-c3cn(C)c4cc(Cl)ccc34)nc12)C(=O)N1CC(C#N)C1 | 1 | < 1 | – |
